Data as given in patent US20210244637A1, “DEUTERATED POLYUNSATURATED FATTY ACIDS OR ESTERS THEREOF FOR COSMETIC APPLICATIONS” (Retrotope, Inc., priority 2020, published 2021).

System: 2-nonenal
Experiment: Reduction in skin odor: 2-nonenal in urine of mice fed D2-LA ethyl ester
Type: in vivo
Details: BALB/c mice; feed supplemented daily, no more than about 10% of PUFAs ingested; after 4 weeks of dosing; urine collected over 2 days; versus LA ethyl ester cohort
Procedure: Mice are known to generate skin odor and the causative agent is 2-nonenal. This example explores the contribution of lipid chain auto-oxidation to the generation of such skin odor. Specifically, two cohorts of BALB/c mice are tested. The feed of the first cohort is supplemented daily with D2-LA ethyl ester in an amount such that D2-LA ethyl ester constitutes no more than about 10% of the PUFAs ingested. The feed provided to the other cohort is supplemented with LA ethyl ester in otherwise identical amounts. After 4 weeks of dosing, the urine from each cohort is collected over a 2-day period and then analyzed to assess differences in the amount of 2-nonenal. Alternatively, skin samples can be evaluated for sebum exudates such as by swabs for chemical components.

For [2H]C([2H])(/C=C\CCCCC)/C=C\CCCCCCCC(=O)OCC [D2-linoleic acid ethyl ester], the “amount of 2-nonenal” value was “significant reduction”.
